Assays:
[1] = tested on: rat peripheral nerve disorder induced by oxaliplatin; conditions: rats; oxaliplatin alone 4 mg/kg i.p.; second week; FIG. 6
[2] = tested on: rat peripheral nerve disorder induced by oxaliplatin; conditions: rats; oxaliplatin alone 4 mg/kg i.p. twice per week; second week; FIG. 5
[3] = tested on: rat peripheral nerve disorder induced by paclitaxel; type: in vivo; conditions: SD male rats; paclitaxel alone 6 mg/kg i.p.; FIG. 2
[4] = tested on: rat peripheral nerve disorder induced by paclitaxel; type: in vivo; conditions: rats; paclitaxel alone
Procedure: 7 and 8-week-old SD male rats were used as experimental animals and separated into three groups of a control group, group administered with paclitaxel, and group administered with paclitaxel and the test substance (group administered with paclitaxel+test substance). To the group administered with paclitaxel, paclitaxel (6 mg/kg) was intraperitoneally administered once a week for 4 weeks in a total of 4 times. To the group administered with paclitaxel+test substance, the test substance (200 NU/kg) was orally administered three times a week, that is, just before the paclitaxel administration and on days 1 and 2 after the paclitaxel administration, for 4 weeks in a total of 12 times. To the control group, a solvent (polyoxyethylene castor oil:ethanol=1:1) used in the paclitaxel administration was similarly administered.

DRG cells = type: cell-based, rat; conditions: 10 ng/mL paclitaxel only, 168 hours, FIG. 4
[5] = tested on: rat peripheral nerve disorder induced by paclitaxel; type: in vivo; conditions: SD male rats; paclitaxel alone 6 mg/kg i.p. once a week for 4 weeks; FIG. 1
PC12 cells = type: cell-based, rat; conditions: forskolin-induced, 10 ng/mL paclitaxel only, 168 hours, FIG. 3

Structure (SMILES) | latent time to posterior foot avoidance (cold plate test, 4° C.) [1] | 50% reaction threshold value (von Frey test), compared with control group [2] | latent time to avoidance reaction (acetone test, cold stimuli) [3] | latent time (plantar test, heat stimuli) [4] | neurite outgrowth (neurite length) (DRG cells) | 50% reaction threshold value (von Frey test), compared with control group [5] | neurite outgrowth (neurite length) (PC12 cells)
O=C1[O][Pt]2([NH][C@@H]3CCCC[C@H]3[NH]2)[O]C1=O [oxaliplatin] | remarkably shortened | remarkably lowered |  |  |  |  | 
CC(=O)O[C@H]1C(=O)[C@@]2(C)[C@H]([C@H](OC(=O)c3ccccc3)[C@]3(O)C[C@H](OC(=O)[C@H](O)[C@@H](NC(=O)c4ccccc4)c4ccccc4)C(C)=C1C3(C)C)[C@]1(OC(C)=O)CO[C@@H]1C[C@@H]2O [paclitaxel] |  |  | remarkably shortened | not shortened | inhibited | remarkably lowered | inhibited
